Source: ChEMBL document CHEMBL3885861, “Open TG-GATES”

Species: Rattus norvegicus
Assay: Open TG-GATES - Regimen: Daily Repeat
Assay type: toxicity, organism-based, Sprague-Dawley
Parameters: regimen Daily Repeat, gender Male, age 6 weeks
Conditions: in vivo, po, route gavage; for APTT / Bas / Eos / Fbg / Hb / Ht / Lym / MCH / MCHC / MCV / Mono / Neu / PT / Plat / RBC / Ret / WBC: tissue Blood; for KIDNEY_L / KIDNEY_R / KIDNEY_TOTAL: tissue Kidney; for LIVER: tissue Liver; for A/G / ALP / ALT / AST / BUN / CRE / Ca / Cl / DBIL / GLC / IP / K / LDH / Na / PL / RALB / TBIL / TC / TG / TP / gamma-GTP: tissue Plasma
[1] = 0 mg/kg, 72 h, dose level Control, time 3 day
[2] = 0 mg/kg, […], dose level Control, time 7 day
[3] = 0 mg/kg, […], dose level Control, time 14 day
[4] = 0 mg/kg, […], dose level Control, time 28 day
[5] = 100 mg/kg, 72 h, dose level Low, time 3 day
[6] = 100 mg/kg, […], dose level Low, time 7 day
[7] = 100 mg/kg, […], dose level Low, time 14 day
[8] = 100 mg/kg, […], dose level Low, time 28 day

CCN1CCCC1CNC(=O)c1cc(S(N)(=O)=O)ccc1OC (centres undefined) [SULPIRIDE]
TERMINAL_BW [1]: 237.8 g
APTT [1]: 16.8 s
Bas [1]: 0%
Eos [1]: 1%
Fbg [1]: 286.8 mg/dL
Hb [1]: 13.4 g/dL
Ht [1]: 41.1%
Lym [1]: 81.6%
MCH [1]: 20.7 pg
MCHC [1]: 32.7%
MCV [1]: 63.2 fL
Mono [1]: 2.8%
Neu [1]: 14%
PT [1]: 12.9 s
Plat [1]: 117.1 x10_4/uL
RBC [1]: 650.4 x10_4/ul
Ret [1]: 6.9%
WBC [1]: 82.7 x10_2/uL
KIDNEY_L [1]: 1.1 g
KIDNEY_R [1]: 1 g
KIDNEY_TOTAL [1]: 2.1 g
LIVER [1]: 11.3 g
A/G [1]: 0.9
ALP [1]: 1602.4 IU/L
ALT [1]: 44.8 IU/L
AST [1]: 67.2 IU/L
BUN [1]: 15.8 mg/dL
CRE [1]: 0.2 mg/dL
Ca [1]: 11.1 mg/dL
Cl [1]: 104.4 meq/L
DBIL [1]: 0.012 mg/dL
GLC [1]: 188.8 mg/dL
IP [1]: 7.3 mg/dL
K [1]: 4.3 meq/L
LDH [1]: 73.8 IU/L
Na [1]: 140.2 meq/L
PL [1]: 153.2 mg/dL
RALB [1]: 2.7 g/dL
TBIL [1]: 0.054 mg/dL
TC [1]: 79.6 mg/dL
TG [1]: 108.6 mg/dL
TP [1]: 5.7 g/dL
gamma-GTP [1]: 1 IU/L
TERMINAL_BW [2]: 264.7 g
TERMINAL_BW [3]: 315.8 g
TERMINAL_BW [4]: 375.6 g
APTT [2]: 16.6 s
Bas [2]: 0.4%
Eos [2]: 1%
Fbg [2]: 286.6 mg/dL
Hb [2]: 13.9 g/dL
Ht [2]: 42%
Lym [2]: 82%
MCH [2]: 20.7 pg
MCHC [2]: 33.2%
MCV [2]: 62.5 fL
Mono [2]: 2.4%
Neu [2]: 14%
PT [2]: 12.8 s
Plat [2]: 131 x10_4/uL
RBC [2]: 672.6 x10_4/ul
Ret [2]: 5.3%
WBC [2]: 110.2 x10_2/uL
APTT [3]: 17.2 s
Bas [3]: 0.4%
Eos [3]: 0.8%
Fbg [3]: 289 mg/dL
Hb [3]: 14.6 g/dL
Ht [3]: 43.8%
Lym [3]: 77.4%
MCH [3]: 20 pg
MCHC [3]: 33.3%
MCV [3]: 60 fL
Mono [3]: 2.4%
Neu [3]: 18.6%
PT [3]: 13 s
Plat [3]: 112.7 x10_4/uL
RBC [3]: 731.4 x10_4/ul
Ret [3]: 3.9%
WBC [3]: 115 x10_2/uL
APTT [4]: 19.6 s
Bas [4]: 0%
Eos [4]: 1.2%
Fbg [4]: 286.6 mg/dL
Hb [4]: 15.8 g/dL
Ht [4]: 46%
Lym [4]: 77.4%
MCH [4]: 19.1 pg
MCHC [4]: 34.3%
MCV [4]: 55.6 fL
Mono [4]: 1.8%
Neu [4]: 19%
PT [4]: 12.9 s
Plat [4]: 119.5 x10_4/uL
RBC [4]: 827.2 x10_4/ul
Ret [4]: 2.4%
WBC [4]: 106.9 x10_2/uL
KIDNEY_L [2]: 1.1 g
KIDNEY_R [2]: 1.1 g
KIDNEY_TOTAL [2]: 2.2 g
KIDNEY_L [3]: 1.2 g
KIDNEY_R [3]: 1.2 g
KIDNEY_TOTAL [3]: 2.4 g
KIDNEY_L [4]: 1.2 g
KIDNEY_R [4]: 1.2 g
KIDNEY_TOTAL [4]: 2.5 g
LIVER [2]: 12.3 g
LIVER [3]: 13.1 g
LIVER [4]: 14.3 g
A/G [2]: 0.9
ALP [2]: 1380.6 IU/L
ALT [2]: 44.2 IU/L
AST [2]: 64.8 IU/L
BUN [2]: 16 mg/dL
CRE [2]: 0.2 mg/dL
Ca [2]: 10.8 mg/dL
Cl [2]: 104.4 meq/L
DBIL [2]: 0.016 mg/dL
GLC [2]: 181.6 mg/dL
IP [2]: 7.7 mg/dL
K [2]: 4.5 meq/L
LDH [2]: 64.4 IU/L
Na [2]: 141.2 meq/L
PL [2]: 152.8 mg/dL
RALB [2]: 2.6 g/dL
TBIL [2]: 0.052 mg/dL
TC [2]: 76.8 mg/dL
TG [2]: 118 mg/dL
TP [2]: 5.5 g/dL
gamma-GTP [2]: 1 IU/L
A/G [3]: 0.8
ALP [3]: 1582.6 IU/L
ALT [3]: 38.8 IU/L
AST [3]: 68.8 IU/L
BUN [3]: 17 mg/dL
CRE [3]: 0.2 mg/dL
Ca [3]: 11 mg/dL
Cl [3]: 103.2 meq/L
DBIL [3]: 0.012 mg/dL
GLC [3]: 193.8 mg/dL
IP [3]: 7.4 mg/dL
K [3]: 3.7 meq/L
LDH [3]: 67 IU/L
Na [3]: 141.2 meq/L
PL [3]: 146.2 mg/dL
RALB [3]: 2.6 g/dL
TBIL [3]: 0.056 mg/dL
TC [3]: 68.2 mg/dL
TG [3]: 133.4 mg/dL
TP [3]: 5.8 g/dL
gamma-GTP [3]: 1 IU/L
A/G [4]: 0.8
ALP [4]: 975.6 IU/L
ALT [4]: 38.2 IU/L
AST [4]: 63.8 IU/L
BUN [4]: 17.2 mg/dL
CRE [4]: 0.3 mg/dL
Ca [4]: 10.5 mg/dL
Cl [4]: 104.8 meq/L
DBIL [4]: 0.012 mg/dL
GLC [4]: 169.2 mg/dL
IP [4]: 6.8 mg/dL
K [4]: 3.7 meq/L
LDH [4]: 61.8 IU/L
Na [4]: 143.6 meq/L
PL [4]: 147 mg/dL
RALB [4]: 2.8 g/dL
TBIL [4]: 0.062 mg/dL
TC [4]: 66.4 mg/dL
TG [4]: 167 mg/dL
TP [4]: 6.1 g/dL
gamma-GTP [4]: 1 IU/L
TERMINAL_BW [5]: 231.2 g
APTT [5]: 17.2 s
Bas [5]: 0%
Eos [5]: 1%
Fbg [5]: 274.6 mg/dL
Hb [5]: 13.6 g/dL
Ht [5]: 41.3%
Lym [5]: 74.8%
MCH [5]: 20.9 pg
MCHC [5]: 32.8%
MCV [5]: 63.7 fL
Mono [5]: 3%
Neu [5]: 20.8%
PT [5]: 13.2 s
Plat [5]: 122 x10_4/uL
RBC [5]: 649.2 x10_4/ul
Ret [5]: 6.5%
WBC [5]: 95.3 x10_2/uL
KIDNEY_L [5]: 1 g
KIDNEY_R [5]: 1 g
KIDNEY_TOTAL [5]: 2 g
LIVER [5]: 10.7 g
A/G [5]: 0.9
ALP [5]: 1543 IU/L
ALT [5]: 42.4 IU/L
AST [5]: 66.4 IU/L
BUN [5]: 13.6 mg/dL
CRE [5]: 0.2 mg/dL
Ca [5]: 11 mg/dL
Cl [5]: 105.2 meq/L
DBIL [5]: 0.01 mg/dL
GLC [5]: 186.8 mg/dL
IP [5]: 7.4 mg/dL
K [5]: 4.2 meq/L
LDH [5]: 70.4 IU/L
Na [5]: 141 meq/L
PL [5]: 142.2 mg/dL
RALB [5]: 2.6 g/dL
TBIL [5]: 0.058 mg/dL
TC [5]: 72 mg/dL
TG [5]: 106.6 mg/dL
TP [5]: 5.6 g/dL
gamma-GTP [5]: 1 IU/L
TERMINAL_BW [6]: 265 g
TERMINAL_BW [7]: 328.7 g
TERMINAL_BW [8]: 377.8 g
APTT [6]: 19.5 s
Bas [6]: 0.6%
Eos [6]: 1.2%
Fbg [6]: 289.6 mg/dL
Hb [6]: 14 g/dL
Ht [6]: 42.1%
Lym [6]: 80%
MCH [6]: 20.5 pg
MCHC [6]: 33.2%
MCV [6]: 61.9 fL
Mono [6]: 2.8%
Neu [6]: 14.6%
PT [6]: 13.1 s
Plat [6]: 123.5 x10_4/uL
RBC [6]: 681.6 x10_4/ul
Ret [6]: 5.3%
WBC [6]: 106.6 x10_2/uL
APTT [7]: 20.6 s
Bas [7]: 0%
Eos [7]: 1%
Fbg [7]: 286 mg/dL
Hb [7]: 14.6 g/dL
Ht [7]: 44%
Lym [7]: 75.2%
MCH [7]: 20.6 pg
MCHC [7]: 33.2%
MCV [7]: 62.1 fL
Mono [7]: 3%
Neu [7]: 20%
PT [7]: 13.1 s
Plat [7]: 121.3 x10_4/uL
RBC [7]: 708 x10_4/ul
Ret [7]: 4.5%
WBC [7]: 97.2 x10_2/uL
APTT [8]: 19.8 s
Bas [8]: 0%
Eos [8]: 1.2%
Fbg [8]: 274.2 mg/dL
Hb [8]: 16 g/dL
Ht [8]: 46.9%
Lym [8]: 76.2%
MCH [8]: 19.8 pg
MCHC [8]: 34.2%
MCV [8]: 57.7 fL
Mono [8]: 1.8%
Neu [8]: 19.8%
PT [8]: 13 s
Plat [8]: 110.8 x10_4/uL
RBC [8]: 812.6 x10_4/ul
Ret [8]: 2.2%
WBC [8]: 95.5 x10_2/uL
KIDNEY_L [6]: 1.1 g
KIDNEY_R [6]: 1.1 g
KIDNEY_TOTAL [6]: 2.2 g
KIDNEY_L [7]: 1.2 g
KIDNEY_R [7]: 1.2 g
KIDNEY_TOTAL [7]: 2.4 g
KIDNEY_L [8]: 1.2 g
KIDNEY_R [8]: 1.2 g
KIDNEY_TOTAL [8]: 2.5 g
LIVER [6]: 12.9 g
LIVER [7]: 14.2 g
LIVER [8]: 14.4 g
A/G [6]: 0.9
ALP [6]: 1433 IU/L
ALT [6]: 45.4 IU/L
AST [6]: 66.6 IU/L
BUN [6]: 14.8 mg/dL
CRE [6]: 0.2 mg/dL
Ca [6]: 10.7 mg/dL
Cl [6]: 105.6 meq/L
DBIL [6]: 0.008 mg/dL
GLC [6]: 175.2 mg/dL
IP [6]: 7.5 mg/dL
K [6]: 4.4 meq/L
LDH [6]: 64.2 IU/L
Na [6]: 141.8 meq/L
PL [6]: 145.2 mg/dL
RALB [6]: 2.6 g/dL
TBIL [6]: 0.056 mg/dL
TC [6]: 70.4 mg/dL
TG [6]: 116.4 mg/dL
TP [6]: 5.6 g/dL
gamma-GTP [6]: 1 IU/L
A/G [7]: 0.9
ALP [7]: 1376.8 IU/L
ALT [7]: 38.8 IU/L
AST [7]: 68.5 IU/L
BUN [7]: 15.8 mg/dL
CRE [7]: 0.2 mg/dL
Ca [7]: 11 mg/dL
Cl [7]: 104.5 meq/L
DBIL [7]: 0.015 mg/dL
GLC [7]: 197 mg/dL
IP [7]: 7.6 mg/dL
K [7]: 3.9 meq/L
LDH [7]: 73.5 IU/L
Na [7]: 141.2 meq/L
PL [7]: 145.5 mg/dL
RALB [7]: 2.7 g/dL
TBIL [7]: 0.06 mg/dL
TC [7]: 67.5 mg/dL
TG [7]: 149 mg/dL
TP [7]: 5.8 g/dL
gamma-GTP [7]: 1 IU/L
A/G [8]: 0.8
ALP [8]: 981.6 IU/L
ALT [8]: 36 IU/L
AST [8]: 65.6 IU/L
BUN [8]: 17.2 mg/dL
CRE [8]: 0.3 mg/dL
Ca [8]: 10.5 mg/dL
Cl [8]: 105.2 meq/L
DBIL [8]: 0.008 mg/dL
GLC [8]: 178 mg/dL
IP [8]: 6.4 mg/dL
K [8]: 3.8 meq/L
LDH [8]: 173.6 IU/L
Na [8]: 142.6 meq/L
PL [8]: 136 mg/dL
RALB [8]: 2.8 g/dL
TBIL [8]: 0.068 mg/dL
TC [8]: 63 mg/dL
TG [8]: 112 mg/dL
TP [8]: 6.2 g/dL
gamma-GTP [8]: 1 IU/L
